For one assay, the system named is position 33 of hSOD. The assay can be described thus: LC-MS/MS of tryptic peptide VY*GSIK of mutant hSOD: identity of the amino acid incorporated. On the set-up: species or system Saccharomyces cerevisiae. To be noted: from the signal-to-noise ratio of the peptide spectra; hSOD position 33. As for the experimental part:
The identity of the amino acid incorporated was determined by subjecting a tryptic digest of the mutant protein to liquid chromatography and tandem mass spectrometry. For example, for mass spectrometry protein bands were visualized by colloidal Coomassie stain. Gel bands corresponding to wild-type and mutant SOD were excised from polyacrylamide gels, sliced into 1.5-mm cubes, reduced and alkylated, then subjected to trypsin hydrolysis essentially as described. See, e.g., A. Shevchenko, et al., (1996), Analytical Chemistry 68, 850-858. Tryptic peptides containing the unnatural amino acid were analyzed by nanoflow reversed-phase HPLC/μESI/MS with an LCQ ion trap mass spectrometer. Liquid chromatography tandem mass spectrometry (LC-MS/MS) analysis was performed on a Finnigan LCQ Deca ion trap mass spectrometer (Thermo Finnigan) fitted with a Nanospray HPLC (Agilent 1100 series). See, e.g., FIG. 10, Panels A-H. […]
For example, the wild-type and mutant hSOD were purified using nickel affinity column and protein bands were visualized by colloidal Coomassie stain. […] Tryptic peptides containing the unnatural amino acid were analyzed by nanoflow reversed-phase HPLC/μESI/MS with an LCQ ion trap mass spectrometer. […]

Assay [1] has as its system GAL4 responsive HIS3, URA3 and lacZ reporters in MaV203. Put plainly: Growth of selection strain MaV203:pGADGAL4(2TAG) harboring synthetase plasmids on selective media (-ura, -his + 3-AT, 5-FOA, X-GAL). Type of assay: cell-based, Saccharomyces cerevisiae. To be noted: MaV203 containing pGADGAL4(T44TAG, R110TAG). On the procedure:
S. cerevisiae strain MaV203, (Invitrogen) is MATα; leu2-3,112; trp1 109;his3 Δ200;ade2-101;cyh2^R;cyh1^R;GAL4 Δ; gal80 Δ; GAL1::lacZ; HIS3UASGAL1::HIS3@LYS2; SPAL10UASGAL1::URA3. Yeast media were purchased from Clontech, 5-FOA and X-GAL were from Invitrogen and 3-AT was from BIO 101. YPER (Yeast Protein Extraction Reagent) and ONPG were purchased from Pierce Chemicals. Plasmid transformations were performed by the PEG/Lithium actetate method (see, e.g., D. Burke, et al., (2000) Methods in Yeast Genetics. Cold Spring Harbor Laboratory Press, Cold Spring Harbor, N.Y.) and transformants selected on the appropriate synthetic complete dropout media. To test the phenotypes conferred by various plasmid combinations on MaV203 yeast colonies from synthetic complete dropout plates of each transformation were resuspended in 15 μL of sterile water and streaked on the selective media of interest. […] The OD660 of 100 μL of cells, and several dilutions of cells were recorded in parallel in a 96 well microtiter plate. […] Upon color development, cells were pelleted by centrifugation, the supernatant transferred to a clean 96 well microtiter plate (Nunclon, cat.# 167008), and the A420 recorded. […] ONPG hydrolysis was calculated using the equation: beta-galactosidase units=[…]. […] Spectrophotometric readings were performed on a SPECTRAmax190 plate reader. […]

A value given as a limit tells only on which side of the number the result lay.

Results on two molecules are retold here after patent publication US7888063B2, “Unnatural reactive amino acid genetic code additions” (The Scripps Research Institute, priority 2003, dated 2011).

Regarding `CC(=O)c1ccc(C[C@H](N)C(=O)O)cc1` [p-acetyl-L-phenylalanine], in the assay with position 33 of hSOD, the incorporation purity is at least 99.8%.

B1: EcTyrRS: Escherichia coli tyrosyl-tRNA synthetase, expressed with tRNACUA in yeast (protein, UniProt P0AGJ9 2-424, looked up)
Tyrosine--tRNA ligase: ASSNLIKQLQERGLVAQVTDEEALAERLAQGPIALYCGFDPTADSLHLGHLVPLLCLKRFQQAGHKPVALVGGATGLIGDPSFKAAERKLNTEETVQEWVDKIRKQVAPFLDFDCGENSAIAANNYDWFGNMNVLTFLRDIGKHFSVNQMINKEAVKQRLNREDQGISFTEFSYNLLQGYDFACLNKQYGVVLQIGGSDQWGNITSGIDLTRRLHQNQVFGLTVPLITKADGTKFGKTEGGAVWLDPKKTSPYKFYQFWINTADADVYRFLKFFTFMSIEEINALEEEDKNSGKAPRAQYVLAEQVTRLVHGEEGLQAAKRITECLFSGSLSALSEADFEQLAQDGVPMVEMEKGADLMQALVDSELQPSRGQARKTIASNAITINGEKQSDPEYFFKEEDRLFGRFTLLRRGKKNYCLICWK
In the case of B1, the “growth phenotype on 3-AT plates” value in assay [1] is listed as “grew robustly on plates with 3-AT concentrations up to 75 mM”.
